Results published in patent US12134610B2, “Somatostatin subtype-2 receptor (SST2R) targeted therapeutics and uses thereof” (priority 2022, dated 2024).
Like-named read-outs stand apart in the source and are kept apart here.

Key:
Type in all cases: cell-based
[1] = molecular target: T1, human somatostatin receptor subtype 2 (Homo sapiens, UniProt P30874); assay: Functional cAMP assay for SSTR2 agonists (HTRF) in CHO-K1 cells; conditions: CHO-K1 cells stably expressing human SST2, 20 min
T1 construct: expressed in transfected cells
From the text: General overview: All five SSTR subtypes are Gi coupled G-protein coupled receptors (GPCRs) that lead to decreases in intracellular cyclic AMP (cAMP) when activated by an agonist. Therefore, measurement of intracellular cAMP levels can be used to assess whether compounds of the invention are agonists of SSTR subtypes (John Kelly, Troy Stevens, W. Joseph Thompson, and Roland Seifert, Current Protocols in Pharmacology, 2005, 2.2.1-2.2). One example of an intracellular cAMP assay is described below.
Functional Assay for SSTR2 Agonists
Four days prior to the assay, 2,000 Chinese hamster ovary cells (CHO-K1, ATCC #CCL-61) stably expressing the human somatostatin receptor subtype 2 are plated in each well of a 96-well tissue culture-treated plate in Ham's F12 growth media (ThermoFisher #10-080-CM) supplemented with 10% donor bovine serum (Gemini Bio-Products #100-506), 100 U/mL penicillin; 100 ug/mL streptomycin; 2 mM L-glutamine (Gemini Bio-Products #400-110) and 0.2 mg/mL hygromycin B (GoldBio #31282-04-9). The cells are cultured at 37° C., 5% CO2 and 95% humidity. cAMP is measured with HTRF dynamic cAMP assay (Cisbio, #62AM5PEJ) per manufacturer's instructions. On the day of the assay, the media is aspirated and the cells are treated with 50 μL of stimulation buffer supplemented with 10.2 mM 3-Isobutyl-1-methylxanthine (IBMX, Millipore Sigma #15879) and 1.6 μM NKH477 (Tocris #1603), plus various dilutions of SMDCs of the present invention. The cells are incubated for 20 minutes at 37° C. (the final concentration of the compounds of the invention are typically 0-10,000 nM). The cells are treated with 50 μL of lysis buffer (HRTF cAMP kit, Cisbio) and incubated at room temperature for 30 minutes with rotary shaking at 600 rpm, and then diluted with 150 μL of stimulation buffer and shaken for an additional five minutes at 300 rpm. The lysate is transferred to 384-well plates and incubated for 1-24 hours at room temperature, and cAMP accumulation is detected by d2-labeled cAMP and Anti-cAMP-Cryptate. The time-resolved fluorescent signal is read using a m1000 Pro (Tecan) or CLARIOStar (BMG Labtech) microplate reader, where the samples are excited with light at 340 nm and emission light is measured at 620 nm and 665 nm. The data is expressed as a calculation of the fluorescence ratio (665 nm/620 nm). The intracellular cAMP concentrations are calculated by regression to a standard curve and are plotted vs. the concentration of the compounds of the invention. The EC50 of the compounds are calculated using standard methods. All data manipulations are in GraphPad Prism v9 (GraphPad, San Diego, CA).

SST2 = molecular target: T2, SST2 (Homo sapiens, UniProt P30874); assay: PathHunter CHO-K1 SST2 internalization assay; conditions: PathHunter CHO-K1 SST2, 90 min
T2 construct: host or cells: PathHunter CHO-K1 SST2 cells
Procedure: SMDCs of the present invention were assessed in vitro using the human PathHunter CHO-K1 SST2 β-arrestin2 and PathHunter CHO-K1 SST2 Internalization Assays from DiscoverX. The CHO-K cells were seeded in 20 μLs of cell culture medium in a white-walled 384 well tissue culture-compatible plate at a density of 2500 cells/well. After a 48-hour incubation, cells were treated with 5 μLs of a 1:3 serially diluted SST2 SMDC prepared at 5× concentration with a final top compound concentration of 10 uM for 90 min at 37 C and in 5% CO2. 11 dilutions were tested as well as one treatment that was compound free. After incubation, the media containing treatments were discarded and 20 μL of a working solution of Beta-Glo from Promega Beta-Glo Assay System was added to each well. The plate was then incubated for 60 min at room temperature in the dark. Luminescence was measured using a Tecan plate reader. IC50 curves were generated using the nonlinear regression analysis (four-parameters) with GraphPad Prism 9. Results were the average of duplicates and are corrected for background.

[2] = test system: NCI-H524 (ATCC) human small cell lung cancer cells
Procedure: SMDCs of the present invention were assessed in an in vitro assay evaluating the inhibition of cell proliferation. NCI-H524 (ATCC) human small cell lung cancer cells were plated in 96-well V-bottom plates (Costar) at a concentration of 5,000 cells/well. 24 h later, the cells were treated for 2 h with a SMDC. SMDC starting dose was 1 uM and two-fold serial dilutions were done for a total of 11 points. After 2 h of treatment, cells were spun down, and the drug-containing media was removed, and fresh complete media was added and used to resuspend the cells, which were spun again. After removal of the media, the cells were resuspended in complete medium and incubated for an additional 70 h. Cell proliferation was assessed using the CellTiter Glo Assay according to the standard protocol (Promega). Luminescence was measured using a TECAN plate reader. Percent proliferation inhibition was calculated using the following formula: % inhibition=(Luminescence Control−Luminescence Treatment)/Luminescence Control*100. IC50 curves were generated using the nonlinear regression analysis (four-parameter) with GraphPad Prism 9.

T1 sequence (P30874 whole entry): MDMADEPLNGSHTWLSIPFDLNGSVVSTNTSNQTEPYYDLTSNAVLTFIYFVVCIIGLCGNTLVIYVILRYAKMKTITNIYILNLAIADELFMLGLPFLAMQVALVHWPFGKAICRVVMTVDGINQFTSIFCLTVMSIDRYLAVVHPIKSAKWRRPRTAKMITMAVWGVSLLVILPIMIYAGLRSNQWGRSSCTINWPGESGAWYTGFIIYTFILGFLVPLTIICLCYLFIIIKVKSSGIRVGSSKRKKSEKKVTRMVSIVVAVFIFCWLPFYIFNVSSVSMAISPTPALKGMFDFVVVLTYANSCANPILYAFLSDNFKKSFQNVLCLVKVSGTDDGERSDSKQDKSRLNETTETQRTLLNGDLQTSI
T2 sequence (P30874 whole entry): as above

Row | SMILES | EC50 ([1]; read-out: hSST2 cAMP Avg EC50) [nM] | EC50 (SST2; read-out: Internalization EC50) [nM] | EC50 ([2]; 2 h) [nM] | EC50 ([1]; hSST2 cAMP Avg EC50 (nM)) [nM] | EC50 (SST2; Internalization EC50 (nM)) [nM] | EC50 ([2]; 2 h treatment, washout, additional 70 h, read-out: H524 EC50) [nM]
1 | CCC(C)C(C(CC(=O)N1CCCC1C(OC)C(C)C(=O)NC(C)C(O)c1ccccc1)OC)N(C)C(=O)C(NC(=O)C(C(C)C)N(C)C(=O)OCc1ccc(NC(=O)CNC(=O)[C@H](Cc2ccccc2)NC(=O)CNC(=O)CNC(=O)CCOCCC(=O)NCCNc2ncc(-c3cc(C)cc(F)c3)c(N3CCC(N)CC3)c2-c2nc3ccc(Cl)cc3[nH]2)cc1)C(C)C (stereo in doubt) [Compound 35] | 0.58 | 6.1 | 17.4 | – | – | –
2 | CCC(C)C(C(CC(=O)N1CCCC1C(OC)C(C)C(=O)NC(C)C(O)c1ccccc1)OC)N(C)C(=O)C(NC(=O)C(C(C)C)N(C)C(=O)OCc1ccc(NC(=O)[C@H](CCCNC(N)=O)NC(=O)[C@@H](NC(=O)CCOCCOCCOCCOCCOCCOCCC(=O)NCCNc2ncc(-c3cc(C)cc(F)c3)c(N3CCC(N)CC3)c2-c2nc3ccc(Cl)cc3[nH]2)C(C)C)cc1)C(C)C (stereo in doubt) [Compound 40] | 0.36 | 26.4 | 46.5 | – | – | –
3 | CCC(C)C(C(CC(=O)N1CCCC1C(OC)C(C)C(=O)NC(C)C(O)c1ccccc1)OC)N(C)C(=O)C(NC(=O)C(C(C)C)N(C)C(=O)OCc1ccc(NC(=O)[C@H](CCCNC(N)=O)NC(=O)[C@@H](NC(=O)CCOCCOCCOCCOCCC(=O)NCCNc2ncc(-c3cc(C)cc(F)c3)c(N3CCC(NC)CC3)c2-c2nc3ccc(Cl)cc3[nH]2)C(C)C)cc1)C(C)C (stereo in doubt) [Compound 41] | 0.48 | 24.6 | 27.8 | – | – | –
4 | COc1cc2cc(c1Cl)N(C)C(=O)CC(OC(=O)[C@@H](C)N(C)C(=O)CCSC1CC(=O)N(CC3CCC(C(=O)NCCNc4ncc(-c5cc(C)cc(F)c5)c(N5CCC(N)CC5)c4-c4nc5ccc(Cl)cc5[nH]4)CC3)C1=O)[C@]1(C)OC1[C@@H](C)C1C[C@@](O)(NC(=O)O1)[C@H](OC)/C=C/C=C(\C)C2 (stereo partly drawn) [Compound 6] | 0.22 | 5.3 | 11.7 | – | – | –
5 | COc1cc2cc(c1Cl)N(C)C(=O)CC(OC(=O)[C@@H](C)N(C)C(=O)CCS[C@H]1CC(=O)N(CC3CCC(C(=O)NCCCC[C@H](N)C(=O)NCCNc4ncc(-c5cc(C)cc(F)c5)c(N5CCC(N)CC5)c4-c4nc5ccc(Cl)cc5[nH]4)CC3)C1=O)[C@]1(C)OC1[C@@H](C)C1C[C@@](O)(NC(=O)O1)[C@H](OC)/C=C/C=C(\C)C2 (stereo partly drawn) [Compound 7] | 0.15 | 21 | 355 | – | – | –
6 | COc1cc2cc(c1Cl)N(C)C(=O)CC(OC(=O)[C@@H](C)N(C)C(=O)CCS[C@@H]1CC(=O)N(CC3CCC(C(=O)NCCCC[C@H](N)C(=O)NCCNc4ncc(-c5cc(C)cc(F)c5)c(N5CCC(N)CC5)c4-c4nc5ccc(Cl)cc5[nH]4)CC3)C1=O)[C@]1(C)OC1[C@@H](C)C1C[C@@](O)(NC(=O)O1)[C@H](OC)/C=C/C=C(\C)C2 (stereo partly drawn) [Compound 8] | 0.12 | 23.6 | 447 | – | – | –
7 | COc1cc2cc(c1Cl)N(C)C(=O)CC(OC(=O)[C@@H](C)N(C)C(=O)CCSSCCNC(=O)CN1CCN(CC(=O)O)CCN(CC(=O)NCCNc3ncc(-c4cc(C)cc(F)c4)c(N4CCC(N)CC4)c3-c3nc4ccc(Cl)cc4[nH]3)CC1)[C@]1(C)OC1[C@@H](C)C1C[C@@](O)(NC(=O)O1)[C@H](OC)/C=C/C=C(\C)C2 (stereo partly drawn) [Compound 9] | 0.13 | 7.7 | 379 | – | – | –
8 | CCc1c2c(nc3ccc(OC(=O)NCCOCCOCCOCCOCCC(=O)NCCNc4ncc(-c5cc(C)cc(F)c5)c(N5CCC(N)CC5)c4-c4nc5ccc(Cl)cc5[nH]4)cc13)-c1cc3c(c(=O)n1C2)COC(=O)[C@]3(O)CC [Compound 10, (19S)-10,19-diethyl-19-hydroxy-14,18-dioxo-17-oxa-3,13-diazapentacyclo[11.8.0.0^2,^11.0^4,^9.0^15,^20]henicosa-1(21),2,4(9),5,7,10,15(20)-heptaen-7-yl N-{14-[(2-{[4-(4-aminopiperidin-1-yl)-3-(6-chloro-1H-1,3-benzodiazol-2-yl)-5-(3-fluoro-5-methylphenyl)pyridin-2-yl]amino}ethyl)carbamoyl]-3,6,9,12-tetraoxatetradecan-1-yl}carbamate] | – | – | – | 0.44 | 3.15 | 17.4
9 | CC[C@H](C)[C@@H]([C@@H](CC(=O)N1CCC[C@H]1[C@H](OC)[C@@H](C)C(=O)N[C@@H](Cc1ccccc1)C(=O)O)OC)N(C)C(=O)[C@@H](NC(=O)[C@H](C(C)C)N(C)C(=O)CCOCCOCCOCCOCCC(=O)NCCNc1ncc(-c2cc(C)cc(F)c2)c(N2CCC(N)CC2)c1-c1nc2ccc(Cl)cc2[nH]1)C(C)C [Compound 11] | 0.086 | 13.4 | 105 | – | – | –
10 | COc1cc2cc(c1Cl)N(C)C(=O)CC(OC(=O)[C@@H](C)N(C)C(=O)CCSSCCNC(=O)CNC(=O)C[C@@H](N)C(=O)NCCNc1ncc(-c3cc(C)cc(F)c3)c(N3CCC(N)CC3)c1-c1nc3ccc(Cl)cc3[nH]1)[C@]1(C)OC1[C@@H](C)C1C[C@@](O)(NC(=O)O1)[C@H](OC)/C=C/C=C(\C)C2 (stereo partly drawn) [Compound 13] | 0.075 | 6.3 | 41.8 | – | – | –
11 | COc1cc2cc(c1Cl)N(C)C(=O)C[C@H](OC(=O)[C@@H](C)N(C)C(=O)CCSSCCOCCOCCOCCC(=O)NCCNc1ncc(-c3cc(C)cc(F)c3)c(N3CCC(N)CC3)c1-c1nc3ccc(Cl)cc3[nH]1)[C@]1(C)OC1[C@@H](C)C1C[C@@](O)(NC(=O)O1)[C@H](OC)/C=C/C=C(\C)C2 (stereo partly drawn) [Compound 19, (2S,5S,6S,16E,18E,20R,21S)-11-chloro-21-hydroxy-12,20-dimethoxy-2,5,9,16-tetramethyl-8,23-dioxo-4,24-dioxa-9,22-diazatetracyclo[19.3.1.1^10,14.0^3,5]hexacosa-10,12,14(26),16,18-pentaen-6-yl (2R)-2-{1-[(2-{[4-(4-aminopiperidin-1-yl)-3-(6-chloro-1H-1,3-benzodiazol-2-yl)-5-(3-fluoro-5-methylphenyl)pyridin-2-yl]amino}ethyl)carbamoyl]-N-methyl-3,6,9-trioxa-12,13-dithiahexadecan-16-amido}propanoate] | 0.44 | 7.1 | 20 | – | – | –
